# Molecular target: T1, PARP (TREVIGEN) (Homo sapiens, UniProt P09874)
# T1 construct: purchased TREVIGEN
# Test: Enzyme assay in vitro (PARP inhibitory activity, 3H-NAD incorporation)
# Format: biochemical
# Conditions: 50% inhibitory concentration, control (distilled water) = 100%; reaction 10 minutes at room temperature
# Protocol: The below procedure was carried out with 96 well plate at room temperature. In a final volume of […], the reaction mixture contained each 10 μL of 500 mM Tris/HCl (pH 8.0, WAKO), 100 mM MgCl2, 50 mM dithiothreitol (sigma), 1 mg/mL activated DNA and 1 mM NAD (containing ^3H-NAD). The 10 μL of test compound was added to the reaction mixture and the reaction was started by addition of 10 μL of 0.1 U/μL PARP (TREVIGEN). The reaction was terminated at 10 minutes by addition of 100 μL of 20% trichloroacetic acid. Poly(ADP-ribose), which is the reaction product, was collected on a glass fiber filter (GF/C, PACKARD). The radioactivity was measured by topcount (PACKARD). Inhibitory activity of the compound was represented by 50% inhibitory concentration calculated as 100% of control (distilled water).
# T1 sequence (P09874 whole entry): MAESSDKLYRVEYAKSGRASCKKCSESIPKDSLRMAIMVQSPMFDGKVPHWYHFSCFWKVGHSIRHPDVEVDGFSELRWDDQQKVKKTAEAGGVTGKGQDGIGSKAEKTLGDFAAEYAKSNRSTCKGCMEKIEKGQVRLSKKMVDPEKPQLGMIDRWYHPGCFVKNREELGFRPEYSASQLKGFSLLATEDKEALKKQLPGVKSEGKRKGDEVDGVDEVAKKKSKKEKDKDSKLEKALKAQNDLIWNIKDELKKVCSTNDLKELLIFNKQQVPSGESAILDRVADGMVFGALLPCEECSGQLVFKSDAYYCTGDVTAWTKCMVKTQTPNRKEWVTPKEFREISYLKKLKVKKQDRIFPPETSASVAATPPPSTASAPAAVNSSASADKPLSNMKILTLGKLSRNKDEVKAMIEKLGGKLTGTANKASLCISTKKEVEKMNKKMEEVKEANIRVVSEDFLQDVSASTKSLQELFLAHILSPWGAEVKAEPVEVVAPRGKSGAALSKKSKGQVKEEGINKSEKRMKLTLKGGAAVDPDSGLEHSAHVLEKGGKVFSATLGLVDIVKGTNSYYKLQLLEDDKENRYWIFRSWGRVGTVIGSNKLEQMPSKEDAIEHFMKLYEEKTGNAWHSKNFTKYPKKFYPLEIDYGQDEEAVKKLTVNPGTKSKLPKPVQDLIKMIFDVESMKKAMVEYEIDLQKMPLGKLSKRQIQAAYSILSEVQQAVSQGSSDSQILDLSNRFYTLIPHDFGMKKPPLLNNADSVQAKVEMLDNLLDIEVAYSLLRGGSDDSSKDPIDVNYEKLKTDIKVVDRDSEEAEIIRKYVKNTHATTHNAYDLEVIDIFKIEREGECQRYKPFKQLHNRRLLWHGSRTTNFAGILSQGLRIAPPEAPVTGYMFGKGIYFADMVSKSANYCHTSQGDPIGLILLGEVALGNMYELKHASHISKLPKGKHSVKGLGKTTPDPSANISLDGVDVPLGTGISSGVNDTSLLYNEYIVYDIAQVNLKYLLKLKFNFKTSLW
row,IC50,SMILES
1,610 nM,"Nc1cc(N)cc(C2=NNC(=O)C3CSCCN23)c1 (stereo not drawn) [6(9), 4-(3,5-diaminophenyl)-6,7,9,9a-tetrahydro[1,4]thiazino[4,3-d][1,2,4]triazin-1(2H)-one]"
2,100 nM,"Nc1cccc(-c2n[nH]c(=O)c3c2NCCC3)c1 [11(4), 8-(3-aminophenyl)-2,3,4,6-tetrahydropyrido[2,3-d]pyridazin-5(1H)-one]"
3,290 nM,"NCCNC(=O)Cc1n[nH]c(=O)c2c1CCCC2 [30(4), 4-(N-(2-aminoethyl)carbamoylmethyl)-5,6,7,8-tetrahydrophthalazin-1(2H)-one]"

# — patent US7402580B2, “Fused pyridazine derivative compounds and drugs containing these compounds as the active ingredient” (Ono Pharmaceutical Co., Ltd., priority 2002, dated 2008)
